Data on 14 compounds can be found in PubChem BioAssay (NCI).

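1) Cells in 96-well plates. 2) Compound, 48 h, 5 concentrations. 3) Linear interpolation between surrounding doses. 4) Unreached endpoint = highest concentration. Definition used: TGI = concentration required for complete inhibition of growth.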 Bounds are passed on as bounds.

Some test systems named below: OVCAR-5 ovarian; PC-3 prostate; EKVX NSCLC; M14 melanoma; T-47D breast; SNB-19 CNS; IGROV1 ovarian; A498 renal; MOLT-4 leukemia; SK-MEL-2 melanoma.
Holding throughout (test): NCI-60 cell line screen, 48 h

In the case of `CC(=O)Oc1ccc2cc(Oc3ccc(Cl)cc3)c(=O)oc2c1`, the TGI in the test on OVCAR-5 ovarian was over 100 µM; with PC-3 prostate, 78.7 µM; with EKVX NSCLC, over 100 µM; in the test on M14 melanoma, over 100 µM; with T-47D breast, over 100 µM; in the test on SNB-19 CNS it was over 100 µM. Further, the TGI in the test with IGROV1 ovarian and with A498 renal was over 100 µM each time.
For `Cc1ccc(-c2cc(-c3ccc(Cl)cc3)nc(/N=C3\C(=O)N(CN4CCCCC4)c4ccc(Cl)cc43)n2)cc1`, the TGI in the test with OVCAR-5 ovarian was over 100 µM; in the test with MOLT-4 leukemia it was 63.4 µM; with PC-3 prostate, over 100 µM; with EKVX NSCLC it was over 100 µM; in the test with SK-MEL-2 melanoma, 39.3 µM; in the test with M14 melanoma, 46.6 µM. In addition, the TGI is over 100 µM in the test with T-47D breast, 34.7 µM in the test on SNB-19 CNS, 34.2 µM in the test with IGROV1 ovarian and 42.3 µM in the test with A498 renal.
In the case of `Cc1[nH]c(=O)nc(N/N=C/c2ccc(Cl)c(Cl)c2)c1C(=O)Nc1ccc(Cl)c(Cl)c1`, the TGI with OVCAR-5 ovarian is over 46.3 µM; in the test on MOLT-4 leukemia it was over 100 µM; with PC-3 prostate, over 51.5 µM; with EKVX NSCLC, over 100 µM; in the test on SK-MEL-2 melanoma, 49.9 µM; with M14 melanoma, 15.7 µM. In addition, the TGI with T-47D breast was 72 µM; in the test on SNB-19 CNS it was 32 µM; with IGROV1 ovarian, over 39.2 µM; in the test with A498 renal, 7.92 µM.
Consider `CSc1c(C(C)=O)c(O)n(-c2ccc(Cl)cc2)c(=O)c1C#N`, for which the TGI in the test with OVCAR-5 ovarian is over 100 µM; with MOLT-4 leukemia, 55.3 µM; in the test with PC-3 prostate, over 100 µM; in the test with EKVX NSCLC, over 100 µM; in the test with SK-MEL-2 melanoma, over 100 µM; with M14 melanoma it was over 100 µM. For the same compound, the TGI is over 100 µM in the test on T-47D breast, over 100 µM in the test on SNB-19 CNS and 93.5 µM in the test on A498 renal.
As to `c1ccc2c3c(ccc2c1)CSCc1ccc2ccccc2c1-3`, the TGI in the test on OVCAR-5 ovarian, in the test on MOLT-4 leukemia, in the test with PC-3 prostate, with EKVX NSCLC, with SK-MEL-2 melanoma and in the test on M14 melanoma was over 100 µM throughout. Further, the TGI in the test with T-47D breast, with SNB-19 CNS, in the test with IGROV1 ovarian and in the test on A498 renal was over 100 µM each time.
For the compound `O=C1CCSSCCC(=O)Nc2ccccc2N1`, the TGI in the test on OVCAR-5 ovarian, with MOLT-4 leukemia, in the test with PC-3 prostate, in the test with EKVX NSCLC, with SK-MEL-2 melanoma and in the test with M14 melanoma was over 100 µM each time. In addition, the TGI in the test on T-47D breast, in the test with SNB-19 CNS, in the test on IGROV1 ovarian and in the test with A498 renal was over 100 µM throughout.
For the compound `N#Cc1c(N)c(-c2ccc(Cl)cc2)c(F)c2ccccc12`, the TGI in the test on OVCAR-5 ovarian, with PC-3 prostate, in the test with EKVX NSCLC, in the test on SK-MEL-2 melanoma, in the test on M14 melanoma and in the test with T-47D breast was over 100 µM throughout. For the same compound, the TGI with SNB-19 CNS, with IGROV1 ovarian and with A498 renal was over 100 µM in each case.
As to `CCCCCCCCCCCCOC1C(COCCN2CCCC2)OC2OC(C)(C)OC21` (stereo not given), the TGI in the test with OVCAR-5 ovarian was 2.88 µM; with MOLT-4 leukemia, 10.4 µM; with PC-3 prostate, 3.16 µM; in the test with EKVX NSCLC, 10.2 µM; in the test on SK-MEL-2 melanoma it was 3.09 µM; in the test with M14 melanoma, 3.25 µM. In addition, the TGI stood at 4.11 µM in the test on T-47D breast, 10.2 µM with SNB-19 CNS, 3.1 µM in the test on IGROV1 ovarian and 27.9 µM in the test on A498 renal.
With `CC1=NN(c2nc(N)nc(/C(C#N)=C/c3ccncc3)n2)C(C)(C)C1`, the TGI in the test with MOLT-4 leukemia, in the test on PC-3 prostate, in the test on EKVX NSCLC, with SK-MEL-2 melanoma, with M14 melanoma and in the test with T-47D breast was over 100 µM throughout. The TGI with SNB-19 CNS, in the test with IGROV1 ovarian and with A498 renal was over 100 µM in each case.
Consider `NC(N)=N/N=C(\c1ccc(Cl)cc1)C1CC1`, for which the TGI in the test with OVCAR-5 ovarian is 39.3 µM; with PC-3 prostate it was 34.9 µM; in the test with EKVX NSCLC it was 83 µM; in the test on SK-MEL-2 melanoma, 34.5 µM; in the test on M14 melanoma, 30 µM; in the test on T-47D breast it was 64.4 µM. In addition, the TGI in the test with SNB-19 CNS was over 100 µM; with IGROV1 ovarian, 31.8 µM; in the test with A498 renal, 32.3 µM.
With `Oc1ccc(-c2c3c(nc4c2CCc2ccc(Br)cc2-4)-c2cc(Br)ccc2CC3)cc1`, the TGI was found to be 40.6 µM in the test with OVCAR-5 ovarian; 31.9 µM in the test with PC-3 prostate; 46.1 µM in the test on EKVX NSCLC; 35 µM in the test on SK-MEL-2 melanoma; 55.1 µM in the test on M14 melanoma; 42.6 µM in the test with T-47D breast. Also, the TGI in the test with SNB-19 CNS worked out at 46.9 µM; in the test on IGROV1 ovarian, 30.7 µM; in the test with A498 renal, 48.6 µM.
For `CCCCCCCCCCCCC(=O)NCC(=O)NC(Cc1ccccc1)C(=O)Oc1ccc([N+](=O)[O-])cc1` (stereo not given), the TGI in the test on OVCAR-5 ovarian, in the test on PC-3 prostate, with EKVX NSCLC, in the test on SK-MEL-2 melanoma, with M14 melanoma and with T-47D breast was over 100 µM in each case. Also, the TGI in the test on SNB-19 CNS, in the test with IGROV1 ovarian and in the test on A498 renal was over 100 µM each time.
For `[N-]=[N+]=NC1(c2ccccc2)C(=O)Nc2ccccc2C1=O` (stereo not given), the TGI with OVCAR-5 ovarian was over 100 µM; in the test on MOLT-4 leukemia, 76.6 µM; with PC-3 prostate, over 100 µM; in the test with SK-MEL-2 melanoma, 67.3 µM; with M14 melanoma it was 74.6 µM; in the test with T-47D breast, over 100 µM. Moreover, the TGI in the test on SNB-19 CNS was over 100 µM; in the test with IGROV1 ovarian, over 100 µM; in the test on A498 renal it was 43.4 µM.
As for `COc1ccc(CNc2nc(NCc3ccc(OC)cc3)nc(NC3CCCCC3)n2)cc1`, the TGI in the test with OVCAR-5 ovarian was over 100 µM; with MOLT-4 leukemia, over 100 µM; with PC-3 prostate, over 100 µM; with EKVX NSCLC, 8.5 µM; in the test with SK-MEL-2 melanoma, 7.86 µM; in the test with T-47D breast, over 100 µM. Further, the TGI was 5.96 µM with SNB-19 CNS, 6.22 µM in the test with IGROV1 ovarian and over 100 µM in the test on A498 renal.
